Assay results from article PMC2376372, “3-Bromophenyl 6-acetoxymethyl-2-oxo-2H-1-benzopyran-3-carboxylate inhibits cancer cell invasion in vitro and tumour growth in vivo” (British Journal of Cancer, 2003).
Where two headings read alike, the source gives them in different places.

What was measured:
[1] = tested on: HT1080 fibrosarcoma cells; assay: Chemoinvasion assay, type IV collagen-coated Transwell inserts (Boyden chamber); format: cell-based, human; conditions: type IV collagen-coated filters; for inhibition of HT1080 cell invasion (chemoinvasion) / inhibition at 1 µM: 1 μM; for inhibition of HT1080 cell invasion (chemoinvasion): 48 h; for inhibition at 1 µM / inhibition at 10 µM: Homo sapiens, HT-1080, 48 h, read-out: inhibition of HT1080 cell invasion (chemoinvasion)
Experimental: Plates (24-well) (Falcon, Becton-Dickinson, USA) and 6.5 mm polycarbonate filters (8 μm pore size) of Transwell cell culture chamber inserts (Costar, Netherlands) were coated with 100 μl of type IV collagen purified from human placenta diluted at 200 μg ml^−1 in phosphate-buffered saline (PBS). Coats were left to air-dry overnight in a laminar flow hood under UV light. Uniformity of the coating was assessed by Coomassie blue staining. Before use, coated plates and inserts were washed twice with water and incubated for at least 1 h in serum-free DMEM at 37°C ([Maquoi et al, 1999]).
(§1) HT1080 cells exponentially growing in T-75 flasks (Nunc, Costar, Netherlands) were collected by trypsin–ethylenediaminetetraacetic acid treatment, washed with serum-containing medium and allowed to recover from trypsinisation for at least 30 min at 37°C. Cells were then washed twice in serum-free DMEM and diluted in the same medium supplemented with 0.1% bovine serum albumin (BSA, fraction V, Sigma, USA) to a cell density of 6 × 10^5 cells ml^−1.
(§2) The influence of coumarin derivatives (0.1, 1 and 10 μM) on HT1080 cell invasion and migration was assayed using Transwell cell culture inserts (Costar) and compared to the reference compound GI 129471 (1 μM), an MMP inhibitor ([Wheeler et al, 1998]).
(§3) For chemoinvasion assays, type IV collagen-coated membranes (see above) were used, whereas uncoated membranes were employed for chemotaxis assays. Lower wells of chambers were filled with DMEM supplemented with 20% FCS and 1% BSA (fraction V, ICN) as chemoattractant, in the presence or absence of coumarin derivative (final concentration 0.1, 1 and 10 μM) or GI 129471 (final concentration 1 μM). Cells (6 × 10^4) suspended in DMEM supplemented with 0.1% BSA (fraction V, ICN) were seeded in the upper wells. Chambers were subsequently incubated for 48 and 4 h for chemoinvasion and chemotaxis assays, respectively, in a humid atmosphere at 37°C (in order to maintain a chemotactic gradient, media from both lower and upper wells were renewed after 24 h). After incubation, filters were removed from the chambers, fixed in 4% paraformaldehyde for 15 min (4°C), permeabilised for 10 min in methanol (−20°C) and stained with Giemsa (4%) for 15 min. The upper surface of the filters was scrapped with a cotton swab and cells having reached the lower surface of the filters were visually counted using a light microscope (Vanox AH3, Olympus, Hamburg, Germany) at 20-fold magnification. Each assay was performed in triplicate. Results were expressed as percentages (±s.d.) of the migration of control cells.

[2] = tested on: HT1080 fibrosarcoma cells; assay: Chemotaxis assay, uncoated Transwell inserts; format: cell-based, human; conditions: 1 μM, 4 h, uncoated filters
Experimental: as §1, §2, §3

α-CT = conditions: cited from earlier work; for ki/KI or kobs/[I], α-CT: pH 7.5, 25°C
HLE = molecular target: T1, HLE (Homo sapiens, UniProt P08246); conditions: cited from earlier work; for ki/KI or kobs/[I], HLE: pH 8.0, 25°C
T1 construct: purchased Elastase Products Co
T1 sequence (P08246 30-267): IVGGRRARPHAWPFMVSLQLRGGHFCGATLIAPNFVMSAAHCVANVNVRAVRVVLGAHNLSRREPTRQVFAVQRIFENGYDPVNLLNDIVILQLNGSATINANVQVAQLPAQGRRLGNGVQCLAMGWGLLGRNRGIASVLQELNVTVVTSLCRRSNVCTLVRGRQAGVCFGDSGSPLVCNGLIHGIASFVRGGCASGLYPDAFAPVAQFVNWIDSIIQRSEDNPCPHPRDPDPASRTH

LMW-uPA = molecular target: T2, LMW-uPA (Homo sapiens, UniProt P00749); assay: Inactivation of LMW-uPA (preincubation method); format: biochemical
T2 construct: Bovine α-CT and LMW-uPA (MW=33 000 Da) were purchased from Sigma; purchased Sigma
Experimental: (§4) Bovine α-CT and LMW-uPA (MW=33 000 Da) were purchased from Sigma, HMW-uPA (MW=54 000 Da) from Choay, trypsin (TRY) and THR from Boehringer-Indelheim (Germany), and MMP-2 and MMP-9 from Calbiochem. Human leucocyte elastase and PM were from Elastase Products Co. and Biogenic, respectively. Except for THR, HMW-uPA, MMP-2 and MMP-9, enzyme concentrations were determined by active-site titrations using the appropriate titrant ([Bender et al, 1966]; [Chase and Shaw, 1970]; [Powers and Gupton, 1977]). […]
(§5) The kinetic parameters for the inhibition were determined either by the preincubation method for LMW-uPA and PM (small aliquots of the reaction mixture were withdrawn at intervals of time and the remaining activity determined), or by the progress curve method (HLE) when the inhibition was too fast to be measured accurately using the preincubation method. […]
(§6) At low inhibitor concentrations, the ratio ki/KI was obtained as kobs/[I]0. […] In the progress curve method, the substrate competes with the inhibitor and the kinetic parameters are determined as previously described ([Doucet et al, 1999]). […]

Plasmin = molecular target: T3, Plasmin (Homo sapiens, UniProt P00747); assay: Inactivation of plasmin (preincubation method); format: biochemical; conditions: pH 7.5, read-out: ki/KI or kobs/[I], Plasmin
T3 construct: No; X′; α-CT; HLE; LMW-uPA; Plasmin; purchased Biogenic
Experimental: as §4, §5, §6

T3 sequence (P00747 581-810 limits assumed, species assumed): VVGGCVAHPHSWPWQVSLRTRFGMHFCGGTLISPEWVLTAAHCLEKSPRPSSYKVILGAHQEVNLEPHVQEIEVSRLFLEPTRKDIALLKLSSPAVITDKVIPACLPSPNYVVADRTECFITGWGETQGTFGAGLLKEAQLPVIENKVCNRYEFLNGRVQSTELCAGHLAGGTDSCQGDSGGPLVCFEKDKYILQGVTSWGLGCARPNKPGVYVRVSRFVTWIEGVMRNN
T3 sequence (P00747 97-580 partner limits assumed, species assumed): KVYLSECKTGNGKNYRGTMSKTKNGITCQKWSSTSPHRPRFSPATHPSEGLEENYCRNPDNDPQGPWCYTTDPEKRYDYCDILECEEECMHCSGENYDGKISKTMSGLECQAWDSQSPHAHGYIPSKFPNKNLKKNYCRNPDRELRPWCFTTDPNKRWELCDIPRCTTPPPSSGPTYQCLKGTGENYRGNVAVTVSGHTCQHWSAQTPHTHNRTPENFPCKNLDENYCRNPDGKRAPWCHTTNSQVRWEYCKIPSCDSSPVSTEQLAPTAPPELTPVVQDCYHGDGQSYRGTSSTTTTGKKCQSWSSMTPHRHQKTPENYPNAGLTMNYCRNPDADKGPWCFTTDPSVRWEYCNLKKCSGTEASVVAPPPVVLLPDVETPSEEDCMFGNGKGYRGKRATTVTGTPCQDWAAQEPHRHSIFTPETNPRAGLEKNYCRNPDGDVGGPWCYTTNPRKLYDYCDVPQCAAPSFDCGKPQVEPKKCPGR

With `CNC(=O)[C@H](Cc1ccccc1)NC(=O)[C@H](CC(C)C)[C@H](CSc1ccccc1)C(=O)NO` [GI 129471, reference compound] the “inhibition of HT1080 cell invasion (chemoinvasion)” value [1] was 60%, the chemotaxis inhibition [2] was 30% and the chemotaxis inhibition ([2]; listed as reference compound) was 20–30%.
For `O=C(Oc1cccc(Cl)c1)c1cc2ccccc2oc1=O` [compound 1], the inhibition at 1 µM [1] is given as 50%, the inhibition at 10 µM [1] is given as 65% and the “ki/KI or kobs/[I], α-CT” value (α-CT; ref Pochet et al (2000)) is given as <500^a M^−1 s^−1. The “ki/KI or kobs/[I], HLE” value (HLE; ref Pochet et al (2000)) was 610^a M^−1 s^−1.
For `Cc1ccc2oc(=O)c(C(=O)Oc3cccc(Cl)c3)cc2c1` [compound 2], the inhibition at 1 µM [1] is given as 50%, the inhibition at 10 µM [1] is given as 70% and the “ki/KI or kobs/[I], α-CT” value (α-CT; ref Pochet et al (2000)) is given as 9400^a M^−1 s^−1. The “ki/KI or kobs/[I], HLE” value (HLE; ref Pochet et al (2000)) was 1100^a M^−1 s^−1.
With `O=C(Oc1cccc(Cl)c1)c1cc2cc(CCl)ccc2oc1=O` [compound 3, 3-chlorophenyl 6-chloromethyl-2-oxo-2H-1-benzopyran-3-carboxylate] the inhibition at 10 µM [1] was 30%, the kinact/KI (LMW-uPA; pH 7.5, read-out: ki/KI or kobs/[I], LMW-uPA) was 336 M⁻¹ s⁻¹ and the “reactivation of inhibited LMW-uPA” value (LMW-uPA; spontaneously after 18 h incubation or after treatment with NH2OH (pH 7.5, 25°C)) was “No reactivation”. The kinact/KI (Plasmin) was 600 M⁻¹ s⁻¹, the “ki/KI or kobs/[I], α-CT” value (α-CT; ref Pochet et al (1996)) was 762700^b M^−1 s^−1 and the “mode of inhibition of α-CT” value (α-CT; ref Pochet et al, 1996, 2000) was “suicide substrate leading to enzyme irreversible inhibition”. The “ki/KI or kobs/[I], HLE” value (HLE; ref Pochet et al (1996)) was 630^b M^−1 s^−1 and the “mode of inhibition of HLE” value (HLE; ref Pochet et al, 1996, 2000) was “transiently inactivated”.
`CC(=O)OCc1ccc2oc(=O)c(C(=O)Oc3ccccc3)cc2c1` [compound 5] gave an inhibition at 1 µM [1] of 30% and an inhibition at 10 µM [1] of 50 to 60%.
In the case of `CC(=O)OCc1ccc2oc(=O)c(C(=O)Oc3cccc(F)c3)cc2c1` [compound 6], the inhibition at 1 µM [1] is reported as 80% and the melting point is reported as 170 to 172 °C.
In the case of `CC(=O)OCc1ccc2oc(=O)c(C(=O)Oc3cccc(I)c3)cc2c1` [compound 8], the “inhibition of HT1080 cell invasion (chemoinvasion)” value [1] is reported as “quite similar to that observed with the reference compound” and the melting point is reported as 169 to 170 °C.
